# Source: patent publication US20120040955A1 (priority 2009, published 2012)
# Assays:
# JAK3 = biological target: T1, JAK3 (Homo sapiens, UniProt P52333); assay: kinobeads assay (competition with affinity matrix in mixed Molt4/Ramos cell lysate, dot blot detection), JAK3; type: binding; settings: activity level
# T1 construct: endogenous in cells; host or cells: Mixed Molt4 / Ramos cell lysate (1:2)
# T1 sequence (P52333 1-1124): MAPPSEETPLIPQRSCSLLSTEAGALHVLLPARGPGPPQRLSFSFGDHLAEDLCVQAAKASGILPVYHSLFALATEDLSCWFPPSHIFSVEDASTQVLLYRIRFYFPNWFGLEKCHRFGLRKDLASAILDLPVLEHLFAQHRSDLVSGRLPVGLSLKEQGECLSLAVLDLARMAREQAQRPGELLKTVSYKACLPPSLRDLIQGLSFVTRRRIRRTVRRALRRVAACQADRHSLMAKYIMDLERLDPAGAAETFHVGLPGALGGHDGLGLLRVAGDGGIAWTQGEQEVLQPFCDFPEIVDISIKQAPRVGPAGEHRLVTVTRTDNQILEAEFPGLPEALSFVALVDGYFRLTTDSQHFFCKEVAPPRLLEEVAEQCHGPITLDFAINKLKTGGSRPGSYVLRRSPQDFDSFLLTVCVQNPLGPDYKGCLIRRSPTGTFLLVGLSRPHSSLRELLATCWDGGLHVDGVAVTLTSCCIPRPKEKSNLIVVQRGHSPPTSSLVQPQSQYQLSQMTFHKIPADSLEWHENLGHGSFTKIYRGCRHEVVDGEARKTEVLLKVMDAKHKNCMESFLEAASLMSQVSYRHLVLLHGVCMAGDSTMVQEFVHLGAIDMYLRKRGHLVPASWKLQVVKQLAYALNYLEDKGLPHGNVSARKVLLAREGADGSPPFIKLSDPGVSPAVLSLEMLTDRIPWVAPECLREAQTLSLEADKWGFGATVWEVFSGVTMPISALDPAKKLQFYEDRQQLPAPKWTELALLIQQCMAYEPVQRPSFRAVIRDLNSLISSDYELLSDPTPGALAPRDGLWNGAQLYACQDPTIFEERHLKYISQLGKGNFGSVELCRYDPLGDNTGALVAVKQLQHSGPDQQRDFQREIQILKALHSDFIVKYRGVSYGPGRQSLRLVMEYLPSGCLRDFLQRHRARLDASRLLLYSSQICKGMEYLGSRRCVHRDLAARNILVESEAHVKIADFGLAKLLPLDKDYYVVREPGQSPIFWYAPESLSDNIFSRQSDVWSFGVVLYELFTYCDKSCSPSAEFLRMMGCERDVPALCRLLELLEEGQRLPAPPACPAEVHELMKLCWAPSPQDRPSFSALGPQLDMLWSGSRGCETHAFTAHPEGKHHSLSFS
# Method: (§1) The compounds of the present invention as described in the previous examples were tested in a kinobeads assay as described for ZAP-70 (WO-A 2007/137867). Briefly, test compounds (at various concentrations) and the affinity matrix with the immobilized aminopyrido-pyrimidine ligand 24 were added to cell lysate aliquots and allowed to bind to the proteins in the lysate sample. After the incubation time the beads with captured proteins were separated from the lysate. Bound proteins were then eluted and the presence of, JAK2 and JAK3 was detected and quantified using specific antibodies in a dot blot procedure and the Odyssey infrared detection system. Dose response curves for individual kinases were generated and IC50 values calculated. Kinobeads assays for ZAP-70 (WO-A 2007/137867) and for kinase selectivity profiling (WO-A 2006/134056) have been previously described.
# (§2) 5× DP buffer: 250 mM Tris-HCl pH 7.4, 25% Glycerol, 7.5 mM MgCl2, 750 mM NaCl, 5 mM Na3VO4; filter the 5× DP buffer through a 0.22 μm filter and store in aliquots at −80° C. The 5× DP buffer is diluted with H2O to 1× DP buffer containing 1 mM DTT and 25 mM NaF.
# (§3) Stock solutions of test compounds were prepared in DMSO. In a 96 well plate 30 μl solution of diluted test compounds at 5 mM in DMSO were prepared. Starting with this solution a 1:3 dilution series (9 steps) was prepared. For control experiments (no test compound) a buffer containing 2% DMSO was used.
# (§4) Molt4 cells (ATCC catalogue number CRL-1582) and Ramos cells (ATCC catalogue number CRL-1596) were grown in 1 litre Spinner flasks (Integra Biosciences, #182101) in suspension in RPMI 1640 medium (Invitrogen, #21875-034) supplemented with 10% Fetal Bovine Serum (Invitrogen) at a density between 0.15×10^6 and 1.2×10^6 cells/ml. Cells were harvested by centrifugation, washed once with 1× PBS buffer (Invitrogen, #14190-094) and cell pellets were frozen in liquid nitrogen and subsequently stored at −80° C. Cells were homogenized in a Potter S homogenizer in lysis buffer: 50 mM Tris-HCl, 0.8% NP40, 5% glycerol, 150 mM NaCl, 1.5 mM MgCl2, 25 mM NaF, 1 mM sodium vanadate, 1 mM DTT, pH 7.5. One complete EDTA-free tablet (protease inhibitor cocktail, Roche Diagnostics, 1873580) per 25 ml buffer was added. The material was dounced 10 times using a mechanized POTTER S, transferred to 50 ml falcon tubes, incubated for 30 minutes on ice and spun down for 10 min at 20,000 g at 4° C. (10,000 rpm in Sorvall SLA600, precooled). The supernatant was transferred to an ultracentrifuge (UZ)-polycarbonate tube (Beckmann, 355654) and spun for 1 hour at 100.000 g at 4° C. (33.500 rpm in Ti50.2, precooled). The supernatant was transferred again to a fresh 50 ml falcon tube, the protein concentration was determined by a Bradford assay (BioRad) and samples containing 50 mg of protein per aliquot were prepared. The samples were immediately used for experiments or frozen in liquid nitrogen and stored frozen at −80° C.
# (§5) Cell lysate (approximately 50 mg protein per plate) was thawed in a water bath at room temperature and then kept on ice. To the thawed cell lysate 1× DP 0.8% NP40 buffer containing protease inhibitors (1 tablet for 25 ml buffer; EDTA-free protease inhibitor cocktail; Roche Diagnostics 1873580) was added in order to reach a final protein concentration of 5 mg/ml total protein. The diluted cell lysate was stored on ice. Mixed Molt4/Ramos lysate was prepared by combining one volume of Molt4 lysate and two volumes of Ramos lysate (ratio 1:2).
# (§6) To a 96 well filter plate (Multiscreen HTS, BV Filter Plates, Millipore #MSBVN1250) were added per well: 100 μl affinity matrix (3% beads slurry), 3 μl of compound solution, and 50 μl of diluted lysate. Plates were sealed and incubated for three hours in a cold room on a plate shaker (Heidolph tiramax 1000) at 750 rpm. Afterwards the plate was washed twice with 230 μl washing buffer (1× DP 0.4% NP40). […]
# JAK2 = biological target: T2, JAK2 (Homo sapiens, UniProt O60674); assay: kinobeads assay (competition with affinity matrix in mixed Molt4/Ramos cell lysate, dot blot detection), JAK2; type: binding; settings: activity level
# T2 construct: endogenous in cells; host or cells: Mixed Molt4 / Ramos cell lysate (1:2)
# T2 sequence (O60674 whole entry): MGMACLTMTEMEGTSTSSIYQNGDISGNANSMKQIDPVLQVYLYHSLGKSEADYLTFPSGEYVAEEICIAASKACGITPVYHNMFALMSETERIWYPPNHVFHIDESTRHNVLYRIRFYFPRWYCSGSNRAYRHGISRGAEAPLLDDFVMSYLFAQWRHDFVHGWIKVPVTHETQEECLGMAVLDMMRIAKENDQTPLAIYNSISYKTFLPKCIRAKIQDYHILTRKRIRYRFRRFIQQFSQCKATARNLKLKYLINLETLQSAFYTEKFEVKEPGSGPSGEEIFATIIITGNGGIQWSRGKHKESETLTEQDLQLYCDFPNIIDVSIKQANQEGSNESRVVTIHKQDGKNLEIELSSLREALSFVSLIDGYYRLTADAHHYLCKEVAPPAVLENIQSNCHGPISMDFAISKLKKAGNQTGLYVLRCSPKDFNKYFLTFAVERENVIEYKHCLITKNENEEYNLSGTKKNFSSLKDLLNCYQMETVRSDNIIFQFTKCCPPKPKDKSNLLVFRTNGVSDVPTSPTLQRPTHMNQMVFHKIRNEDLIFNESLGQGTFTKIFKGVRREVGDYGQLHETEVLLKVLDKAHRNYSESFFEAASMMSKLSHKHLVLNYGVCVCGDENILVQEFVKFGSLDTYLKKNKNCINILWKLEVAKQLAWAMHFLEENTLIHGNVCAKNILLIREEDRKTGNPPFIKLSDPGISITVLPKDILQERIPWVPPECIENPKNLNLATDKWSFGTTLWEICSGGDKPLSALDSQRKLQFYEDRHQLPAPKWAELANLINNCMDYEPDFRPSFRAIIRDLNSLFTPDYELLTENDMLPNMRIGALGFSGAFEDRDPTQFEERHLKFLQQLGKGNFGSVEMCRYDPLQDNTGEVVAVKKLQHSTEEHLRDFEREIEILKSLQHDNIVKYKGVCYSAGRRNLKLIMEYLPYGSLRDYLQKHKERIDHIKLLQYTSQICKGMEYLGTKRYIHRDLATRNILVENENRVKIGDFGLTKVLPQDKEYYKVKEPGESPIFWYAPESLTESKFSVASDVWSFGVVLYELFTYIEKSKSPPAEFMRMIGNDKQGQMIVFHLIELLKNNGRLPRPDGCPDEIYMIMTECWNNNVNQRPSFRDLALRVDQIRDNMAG
# Method: as §1, §2, §3, §4, §5, §6
Structure (SMILES),IC50 (JAK3) [nM],IC50 (JAK2) [nM]
"CS(=O)(=O)Nc1ccccc1Nc1nc(Nc2cc(-n3cnnn3)ccc2F)ncc1F [Example 1, N-(2-(5-fluoro-2-(2-fluoro-5-(1H-tetrazol-1-yl)phenylamino)pyrimidin-4-ylamino)phenyl)methanesulfonamide]",< 100,1000 to 10000
"CS(=O)(=O)Nc1ccccc1Nc1nc(Nc2ccc(N3CCOCC3)cc2F)ncc1F [Example 2, N-(2-(5-fluoro-2-(2-fluoro-4-morpholinophenylamino)pyrimidin-4-ylamino)phenyl)methanesulfonamide]",100 to 1000,> 10000
"CS(=O)(=O)Nc1c(F)cccc1Nc1nc(Nc2cc(-n3cnnn3)ccc2F)ncc1F [Example 3, N-(2-fluoro-6-(5-fluoro-2-(2-fluoro-5-(1H-tetrazol-1-yl)phenylamino)pyrimidin-4-ylamino)phenyl)methanesulfonamide]",< 100,> 10000
"Cc1cccc(Nc2nc(Nc3cc(-n4cnnn4)ccc3F)ncc2F)c1NS(C)(=O)=O [Example 4, N-(2-(5-fluoro-2-(2-fluoro-5-(1H-tetrazol-1-yl)phenylamino)pyrimidin-4-ylamino)-6-methylphenyl)methanesulfonamide]",< 100,> 10000
"COc1ccc(Nc2nc(Nc3cc(-n4cnnn4)ccc3F)ncc2F)c(NS(C)(=O)=O)c1 [Example 5, N-(2-(5-fluoro-2-(2-fluoro-5-(1H-tetrazol-1-yl)phenylamino)pyrimidin-4-ylamino)-5-methoxyphenyl)methanesulfonamide]",< 100,1000 to 10000
"CS(=O)(=O)Nc1ccccc1Nc1nc(Nc2cc(-n3cnnn3)ccc2F)ncc1Cl [Example 7, N-(2-(5-chloro-2-(2-fluoro-5-(1H-tetrazol-1-yl)phenylamino)pyrimidin-4-ylamino)phenyl)methanesulfonamide]",< 100,100 to 1000
"Cc1cccc(Nc2nc(Nc3cc(-n4cnnn4)ccc3F)ncc2Cl)c1NS(C)(=O)=O [Example 9, N-(2-(5-chloro-2-(2-fluoro-5-(1H-tetrazol-1-yl)phenylamino)pyrimidin-4-ylamino)-6-methylphenyl)methanesulfonamide]",< 100,100 to 1000
"COc1ccc(Nc2nc(Nc3cc(-n4cnnn4)ccc3F)ncc2Cl)c(NS(C)(=O)=O)c1 [Example 10, N-(2-(5-chloro-2-(2-fluoro-5-(1H-tetrazol-1-yl)phenylamino)pyrimidin-4-ylamino)-5-methoxyphenyl)methanesulfonamide]",< 100,100 to 1000
"CS(=O)(=O)Nc1ccccc1Nc1nc(Nc2cc(-n3cnnn3)ccc2F)ncc1Br [Example 12, N-(2-(5-bromo-2-(2-fluoro-5-(1H-tetrazol-1-yl)phenylamino)pyrimidin-4-ylamino)phenyl)methanesulfonamide]",< 100,100 to 1000
"CN(c1ccccc1Nc1nc(Nc2cc(-n3cnnn3)ccc2F)ncc1F)S(C)(=O)=O [Example 13, N-(2-(5-fluoro-2-(2-fluoro-5-(1H-tetrazol-1-yl)phenylamino)pyrimidin-4-ylamino)phenyl)-N-methylmethanesulfonamide]",< 100,100 to 1000
CCNC(=O)c1ccc(F)c(Nc2ncc(Cl)c(Nc3ccccc3NS(C)(=O)=O)n2)c1 [Example 14],< 100,100 to 1000
CS(=O)(=O)Nc1ccccc1Nc1nc(Nc2cc(C(=O)NC3CC3)ccc2F)ncc1Cl [Example 15],< 100,
CC(C)NC(=O)c1ccc(F)c(Nc2ncc(Cl)c(Nc3ccccc3NS(C)(=O)=O)n2)c1 [Example 16],< 100,
"CS(=O)(=O)Nc1ccccc1Nc1nc(Nc2cc(C(=O)N3CCCCC3)ccc2F)ncc1Cl [Example 17, N-(2-(5-chloro-2-(2-fluoro-5-(piperidine-1-carbonyl)phenylamino)pyrimidin-4-ylamino)phenyl)methanesulfonamide]",< 100,1000 to 10000
"CS(=O)(=O)Nc1ccccc1Nc1nc(Nc2cc(C(N)=O)ccc2F)ncc1Cl [Example 18, 3-(5-chloro-4-(2-(methylsulfonamido)phenylamino)pyrimidin-2-ylamino)-4-fluorobenzamide]",< 100,> 10000
"CCN(CC)C(=O)c1ccc(F)c(Nc2ncc(Cl)c(Nc3ccccc3NS(C)(=O)=O)n2)c1 [Example 19, 3-(5-chloro-4-(2-(methylsulfonamido)phenylamino)pyrimidin-2-ylamino)-N,N-diethyl-4-fluorobenzamide]",100 to 1000,
"CS(=O)(=O)Nc1ccccc1Nc1nc(Nc2cc(C(=O)N3CCC3)ccc2F)ncc1Cl [Example 20, N-(2-(2-(5-(azetidine-1-carbonyl-2-fluorophenylamino))-5-chloropyrimidin-4-ylamino)phenyl)methanesulfonamide]",< 100,
"CNC(=O)c1ccc(F)c(Nc2ncc(Cl)c(Nc3ccccc3NS(C)(=O)=O)n2)c1 [Example 21, 3-(5-chloro-4-(2-(methylsulfonamido)phenylamino)pyrimidin-2-ylamino)-4-fluoro-N-methybenzamide]",< 100,1000 to 10000
"CS(=O)(=O)Nc1ccccc1Nc1nc(Nc2cc(C(=O)NCCO)ccc2F)ncc1Cl [Example 22, 3-(5-chloro-4-(2-(methylsulfonamido)phenylamino)pyrimidin-2-ylamino)-4-fluoro-N-(2-hydroxyethyl)benzamide]",< 100,1000 to 10000
CS(=O)(=O)Nc1ccccc1Nc1nc(Nc2cc(C(=O)NCC#N)ccc2F)ncc1Cl [Example 25],< 100,1000 to 10000
